Measurements reported in patent US12590062B2, “PD-1/PD-L1 inhibitors” (Gilead Sciences, Inc., priority 2017, dated 2026).

Key:
[1] = target: PD-1/PD-L1 (Homo sapiens, UniProt Q9NZQ7); assay: PD-1/PD-L1 biochemical protein-protein interaction assay (ALPHA); type: binding; conditions: 0.3 nM His tagged PD-L1, 2.5 nM biotinylated Fc-PD-1, 60 minutes at 25° C., read-out: IC50 PD-L1-PD-1 Alpha IC50-mono PD-L1-fcP-D1
Outline: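 Compound blockade of the PD-1/PD-L1 extracellular-domain interaction measured as reduced ALPHA signal after 60 min at 25 °C, pH 7.4 Hepes buffer with EDTA, Tween 20 and BSA. Final proteins: His-tagged PD-L1 0.3 nM, biotinylated Fc-PD-1 2.5 nM; four-parameter curve fit gives IC50.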

[2] = target: T1, PD-1/PD-L1 interaction (Homo sapiens, UniProt Q9NZQ7); assay: PD-1/PD-L1 NFAT reporter co-culture assay; type: cell-based; conditions: Jurkat PD-1 NFAT-luciferase cells co-cultured with aAPC-PD-L1 CHO cells, 6 hrs at 37° C.; read-out: EC50 NFAT Luciferase
T1 construct: expressed in transfected cells; host or cells: CHO cells (aAPC-PD-L1) co-cultured with Jurkat cells overexpressing PD-1 and an NFAT-luciferase reporter
T1 sequence (Q9NZQ7 19-290): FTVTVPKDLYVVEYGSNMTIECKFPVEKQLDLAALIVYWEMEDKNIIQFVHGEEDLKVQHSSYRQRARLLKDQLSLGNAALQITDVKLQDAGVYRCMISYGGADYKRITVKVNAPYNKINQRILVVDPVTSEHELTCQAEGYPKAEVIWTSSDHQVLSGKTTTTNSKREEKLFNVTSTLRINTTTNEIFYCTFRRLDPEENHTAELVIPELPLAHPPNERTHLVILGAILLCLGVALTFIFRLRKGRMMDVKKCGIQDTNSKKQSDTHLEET
Outline: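 Luminescence (ONE-Glo) after 6 h, 37 °C co-culture reports NFAT-luciferase in PD-1 Jurkat cells, which PD-1/PD-L1 engagement suppresses. Partner cells: CHO expressing anti-CD3 and PD-L1. EC50 from four-parameter dose-response fit.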

[3] = target: T2, PD-L1 (Homo sapiens, UniProt Q9NZQ7); assay: PD-L1/PD-L1 dimerization biochemical protein-protein interaction assay (ALPHA); type: binding; conditions: compound-induced PD-L1 dimerization, head prints '1 nM' (0.5 nM His-tagged PD-L1 and 0.5 nM FLAG-tagged PD-L1), read-out: AC50 PDL1 Dimer Alpha 1 nM
T2 construct: determine if they can specifically dimerize the extracellular domains of PD-L1
T2 sequence (Q9NZQ7 19-238 limits assumed): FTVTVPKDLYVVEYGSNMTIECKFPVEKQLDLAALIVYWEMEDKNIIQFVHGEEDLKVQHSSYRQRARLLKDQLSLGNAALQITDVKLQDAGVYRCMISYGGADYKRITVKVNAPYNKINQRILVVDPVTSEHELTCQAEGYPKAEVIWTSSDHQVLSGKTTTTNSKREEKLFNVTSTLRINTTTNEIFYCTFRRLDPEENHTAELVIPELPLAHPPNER
T2 sequence (Q9NZQ7 19-238 limits assumed): as above
Outline: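 After 2 h at 25 °C with compound, His- and FLAG-tagged PD-L1 ECDs (each 0.5 nM final; 25 mM Hepes pH 7.4, 150 mM NaCl) were detected by sequential anti-His acceptor and anti-FLAG donor bead incubations. Dose-response curves fitted to four-parameter equation for AC50.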

Chain of PD-1/PD-L1 (Q9NZQ7 19-238 limits assumed): as above

| SMILES | IC50 [1] [nM] | EC50 [2] [nM] | AC50 [3] [nM] |
| --- | --- | --- | --- |
| COc1nc(-c2cccc(-c3cccc4c3CC[C@@H]4Oc3nc(OC)c(CN4CCC[C@H](C(=O)O)C4)cc3Cl)c2Cl)ccc1CNC[C@@H]1CCC(=O)N1 [Example 759] | 0.064 | 16 | 18.9 |
| COc1nc(-c2cccc(-c3cccc4c3CC[C@@H]4Oc3nc(OC)c(CN4C[C@H](C(=O)O)[C@@H](C(C)C)C4)cc3Cl)c2Cl)ccc1CNC[C@@H]1CCC(=O)N1 [Example 760] | 0.064 | 63 | 44.2 |
| COc1nc(-c2cccc(-c3cccc4c3CC[C@@H]4Oc3nc(OC)c(CN4CCCC(C)(C(=O)O)C4)cc3Cl)c2Cl)ccc1CNC[C@@H]1CCC(=O)N1 (stereo partly drawn) [Example 761] | 0.064 | 10 | 13.2 |
| COc1nc(-c2cccc(-c3cccc4c3CC[C@@H]4Oc3nc(OC)c(CN4CCCC(O)(C(=O)O)C4)cc3Cl)c2Cl)ccc1CNC[C@@H]1CCC(=O)N1 (stereo partly drawn) [Example 762] | 0.064 | 18 | 13.6 |
| COc1nc(-c2cccc(-c3cccc4c3CC[C@@H]4Oc3nc(OC)c(CN4CCC(C)(C(=O)O)C4)cc3Cl)c2Cl)ccc1CNC[C@@H]1CCC(=O)N1 (stereo partly drawn) [Example 763] | 0.064 | 10 | 11.3 |
| COc1nc(-c2cccc(-c3cccc4c3CC[C@@H]4Oc3nc(OC)c(CN4CCC[C@H](C(=O)O)[C@@H]4C)cc3Cl)c2Cl)ccc1CNC[C@@H]1CCC(=O)N1 [Example 764] | 0.064 | 23 | 31.9 |
| COc1nc(-c2cccc(-c3cccc4c3CC[C@@H]4Oc3nc(OC)c(CN4C[C@@H](C)[C@H](C(=O)O)C4)cc3Cl)c2Cl)ccc1CNC[C@@H]1CCC(=O)N1 [Example 765] | 0.064 | 11 | 13.1 |
| COc1nc(-c2cccc(-c3cccc4c3CC[C@@H]4Oc3nc(OC)c(CN4CC5(C(=O)O)CCC4CC5)cc3Cl)c2Cl)ccc1CNC[C@@H]1CCC(=O)N1 [Example 766] | 0.064 | 21 | 19.4 |
| COc1nc(O[C@H]2CCc3c(-c4cccc(-c5cnc(CN6CC7(C6)CN(C(C)=O)C7)c(OC)n5)c4Cl)cccc32)c(Cl)cc1CN1CC[C@@H](C(=O)O)C1 [Example 767] | 0.064 | 57 | 75.7 |
| COc1nc(O[C@H]2CCc3c(-c4cccc(-c5cnc(CNC[C@@H]6CCC(=O)N6)c(OC)n5)c4Cl)cccc32)c(Cl)cc1CN1CC[C@@H](C(=O)O)C1 [Example 768] | 0.064 | 33 | 47.4 |
| COc1nc(-c2cccc(-c3cccc4c3CC[C@@H]4Oc3nc(OC)c(CN4CC[C@@H](C(=O)O)C4)cc3Cl)c2Cl)ccc1CNC[C@@H]1CCC(=O)N1 [Example 769] | 0.064 | 25 | 28.1 |
| CCOC(=O)[C@@H]1CCN(Cc2cc(Cl)c(O[C@H]3CCc4c(-c5cccc(-c6ccc(CN7CC8(C7)CN(C(C)=O)C8)cc6)c5Cl)cccc43)nc2OC)C1 [Example 770] | 0.418 | 856 | 700 |
| COc1nc(O[C@H]2CCc3c(-c4cccc(-c5ccc(CN6CC7(C6)CN(C(C)=O)C7)cc5)c4Cl)cccc32)c(Cl)cc1CN1CC[C@@H](C(=O)O)C1 [Example 771] | 0.064 | 130 | 45 |
| COc1nc(O[C@H]2CCc3c(-c4cccc(-c5ccc(CNCCO)cc5)c4Cl)cccc32)c(Cl)cc1CNCCO [Example 772] | 0.552 | ≥ 50000 | 19.5 |
| COc1nc(O[C@H]2CCc3c(-c4cccc(-c5ccc(CN6CC7(CCC(=O)N7)C6)cc5)c4Cl)cccc32)c(Cl)cc1CN1CC2(CCC(=O)N2)C1 [Example 773] | 0.638 | 2100 | ≥ 10000 |
| COc1nc(O[C@H]2CCc3c(-c4cccc(-c5ccc(C6=N[C@@H](C)CN6)c(OC)n5)c4Cl)cccc32)c(Br)cc1CN1CC[C@H](O)[C@H](F)C1 [Example 774] | 1.31 | 463 | 2730 |
| COc1nc(O[C@H]2CCc3c(-c4cccc(-c5ccc(C6=NCCN6)c(OC)n5)c4Cl)cccc32)c(Br)cc1CN1CC2(C1)CN(C(C)=O)C2 [Example 775] | 0.276 | 84 | 68 |
| CCOC(=O)[C@@H]1CCCCN1Cc1cc(Br)c(O[C@H]2CCc3c(-c4cccc(-c5ccc(C6=NCCN6)c(OC)n5)c4Cl)cccc32)nc1OC [Example 776] | 8.31 | 1440 | ≥ 10000 |
| COc1cc(-c2cccc(-c3cccc4c3CC[C@@H]4Oc3ccc(CN[C@@](C)(CO)C(=O)O)c(OC)n3)c2Cl)ccc1C1=NCCN1 [Example 777] | 0.064 | 179 | 45.8 |

| SMILES | IC50 [1] [nM] | EC50 [2] [nM] | AC50 [3] [nM] |
| --- | --- | --- | --- |
| COc1nc(O[C@H]2CCc3c(-c4cccc(-c5ccc(C6=N[C@H](C)CN6)c(OC)n5)c4Cl)cccc32)ccc1CN[C@@](C)(CO)C(=O)O [Example 778] | 0.113 | 212 | 259 |
| COc1nc(O[C@H]2CCc3c(-c4cccc(-c5ccc(C6=NCCN6)c(OC)n5)c4Cl)cccc32)c(Br)cc1CNC[C@@H]1CCC(=O)N1 [Example 779] | 0.353 | 68 | 113 |
| COc1cc(-c2cccc(-c3cccc4c3CC[C@@H]4Oc3nc(OC)c(CN[C@@](C)(CO)C(=O)O)cc3Br)c2Cl)ccc1C1=NCCN1 [Example 780] | 0.064 | 50 | 14.4 |
| COc1nc(O[C@H]2CCc3c(-c4cccc(-c5ccc(C6=N[C@@H](C)CN6)c(OC)n5)c4Cl)cccc32)c(Br)cc1CN[C@@](C)(CO)C(=O)O [Example 781] | 0.064 | 34 | 23.3 |
| COc1nc(O[C@H]2CCc3c(-c4cccc(-c5ccc(C6=N[C@H](C)CN6)c(OC)n5)c4Cl)cccc32)c(Br)cc1CN[C@@](C)(CO)C(=O)O [Example 782] | 0.064 | 38 | 23.1 |
| COc1nc(O[C@H]2CCc3c(-c4cccc(-c5ccc6c(c5)C[C@@H](N)C6)c4Cl)cccc32)ccc1CN[C@@](C)(CO)C(=O)O [Example 783] | 0.259 | 2990 | 823 |
| COc1nc(O[C@H]2CCc3c(-c4cccc(-c5ccc6c(c5)C[C@@H](N)C6)c4Cl)cccc32)c(Br)cc1CN[C@@](C)(CO)C(=O)O [Example 784] | 0.064 | 182 | 28.9 |
| COc1nc(O[C@H]2CCc3c(-c4cccc(-c5ccc(C6=NCCN6)c(OC)n5)c4Cl)cccc32)c(Br)cc1CN1CCCC[C@H]1C(=O)O [Example 785] | 0.064 | 66 | 16.1 |
| COc1nc(O[C@H]2CCc3c(-c4cccc(-c5ccc(C6=NCCN6)c(OC)n5)c4Cl)cccc32)c(Br)cc1CNC(C)(C)C(=O)O [Example 786] | 0.064 | 86 | 12.2 |
| COc1nc(O[C@H]2CCc3c(-c4cccc(-c5ccc(C6=NCCN6)c(OC)n5)c4Cl)cccc32)c(Br)cc1CNC[C@@H](O)CC(=O)O [Example 787] | 0.066 | 58 | 35.4 |
| COc1nc(O[C@H]2CCc3c(-c4cccc(-c5ccc(C6=NCCN6)c(OC)n5)c4Cl)cccc32)c(Br)cc1CN[C@](C)(CO)C(=O)O [Example 788] | 0.064 | 39 | 11.8 |
| COc1nc(O[C@H]2CCc3c(-c4cccc(-c5ccc(C6=NCCN6)c(OC)n5)c4Cl)cccc32)c(Br)cc1CN[C@@](C)(CO)C(=O)O [Example 789] | 0.064 | 58 | 17.9 |
| COc1nc(O[C@H]2CCc3c(-c4cccc(-c5ccc(CNC[C@@H]6CCC(=O)N6)c(F)c5)c4Cl)cccc32)c(Br)cc1CNC[C@@H]1CCC(=O)N1 [Example 790] | 0.865 | 84 | 75.7 |
| COc1nc(O[C@H]2CCc3c(-c4cccc(-c5ccc(CNC[C@@H]6CCC(=O)N6)c(Cl)c5)c4Cl)cccc32)c(Br)cc1CNC[C@@H]1CCC(=O)N1 [Example 791] | 2.84 | 175 | 206 |
| COc1cc(-c2cccc(-c3cccc4c3CC[C@@H]4Oc3nc(OC)c(CNC[C@@H]4CCC(=O)N4)cc3Br)c2Cl)ccc1CNC[C@@H]1CCC(=O)N1 [Example 792] | 0.534 | 40 | 22.7 |
| COc1nc(O[C@H]2CCc3c(-c4cccc(-c5ccc6c(c5)C[C@@H](N)C6)c4Cl)cccc32)ccc1CNC[C@@H]1CCC(=O)N1 [Example 793] | 1.75 | 1810 | 187 |
| COc1nc(O[C@H]2CCc3c(-c4cccc(-c5ccc6c(c5)C[C@@H](N)C6)c4Cl)cccc32)c(Br)cc1CNC[C@@H]1CCC(=O)N1 [Example 794] | 1.73 | 794 | 94.2 |
| C[C@@](CO)(NCc1cc(Cl)c(O[C@H]2CCc3c(-c4cccc(-c5ccc6c(c5)CC(N)C6)c4Cl)cccc32)nc1OCc1cncc(C#N)c1)C(=O)O (stereo partly drawn) [Example 795] | 0.064 | 41 | 9.65 |
